Measured values: patent publication US5270204A, “Covalent angiogenin/RNase hybrids” (The President and Fellows of Harvard College, priority 1992, dated 1993)

T1: bovine pancreatic RNase A (Bos taurus, UniProt P61823)
T1 sequence (P61823 27-150): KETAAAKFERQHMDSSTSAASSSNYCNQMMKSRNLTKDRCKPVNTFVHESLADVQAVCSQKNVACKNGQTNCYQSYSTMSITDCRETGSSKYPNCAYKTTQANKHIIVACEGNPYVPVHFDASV


Columns and labels:
[1] = target: human angiogenin, wild type (Homo sapiens, UniProt P03950); conditions: 30 mM Mes, 30 mM NaCl, pH 6.0 at 37° C.; cited from earlier work
[2] = target: T1, bovine pancreatic RNase A; conditions: spectrophotometric assay, 30 mM Mes, 30 mM NaCl, pH 6.0 at 25° C.; cited from earlier work
[3] = substrate: Nc1ncnc2c1ncn2[C@@H]1O[C@H](COP(=O)(O)O[C@H]2[C@@H](O)[C@H](n3ccc(=O)[nH]c3=O)O[C@@H]2CO)[C@@H](O)[C@H]1O; assay: Activity toward dinucleotide (3',5') phosphates, HPLC quantitation method; assay type: biochemical, human; conditions: other: ARH-III, 30 mM Mes, 30 mM NaCl, pH 6.0 at 37° C., 0.1 mM substrate, 2.8 μM ARH-III
Protocol: (§1) Activity toward dinucleotide (3', 5') phosphates was determined by an HPLC quantitation method as described by Shapiro et al., 1988, Anal. Biochem. 175: 450-461; Harper and Vallee, 1989, Biochemistry 28: 1875-1884. Reaction mixtures (30 μL) contained 0.1 mM substrate, 2.8 μM ARH-III and were incubated for 4-24 hours at 37° C.
(§2) The enzymatic activities of ARH-III toward tRNA, 18S and 28S rRNA, and dinucleotide substrates were very similar to those of angiogenin. […] Angiogenin and RNase A (obtained from Cooper Biochemicals) had maximal activities under these assay conditions at pH ~6.8 and ~8.1, respectively, consistent with previous results obtained by Lee & Vallee, 1989b, Biochem. and Biophys. Res. Commun. 161: 121-126. It is known that angiogenin catalyzes the cleavage of dinucleotide substrates, but at rates 5-6 orders of magnitude lower than those observed for RNase A (Shapiro et al., 1988, Anal. Biochem. 175: 450-461; Harper & Vallee, 1989, Biochemistry 28: 1875-1884). Its specificity is different from that of RNase A based on kcat /Km values for 4 different dinucleotides. In all cases, kcat /Km values were within 30% of those observed for angiogenin, and the relative specificity for the substrates was unchanged.
(§3) ^a Assays with ARHIII and angiogenin were performed in 30 mM Mes, 30
(§4) mM NaCl, pH 6.0 at 37° C.

[4] = substrate: Nc1ccn([C@@H]2O[C@H](CO)[C@@H](OP(=O)(O)OC[C@H]3O[C@@H](n4cnc5c(=O)[nH]c(N)nc54)[C@H](O)[C@@H]3O)[C@H]2O)c(=O)n1; assay: as above; assay type: biochemical, human; conditions: other: ARH-III, 30 mM Mes, 30 mM NaCl, pH 6.0 at 37° C., 0.1 mM substrate, 2.8 μM ARH-III
Protocol: as §1, §2, §3, §4

[5] = substrate: Nc1nc2c(ncn2[C@@H]2O[C@H](COP(=O)(O)O[C@H]3[C@@H](O)[C@H](n4ccc(=O)[nH]c4=O)O[C@@H]3CO)[C@@H](O)[C@H]2O)c(=O)[nH]1; assay: as above; assay type: biochemical, human; conditions: other: ARH-III, 30 mM Mes, 30 mM NaCl, pH 6.0 at 37° C., 0.1 mM substrate, 2.8 μM ARH-III
Protocol: as §1, §2, §3, §4

[6] = substrate: Nc1ccn([C@@H]2O[C@H](CO)[C@@H](OP(=O)(O)OC[C@H]3O[C@@H](n4cnc5c(N)ncnc54)[C@H](O)[C@@H]3O)[C@H]2O)c(=O)n1; assay: as above; assay type: biochemical, human; conditions: other: ARH-III, 30 mM Mes, 30 mM NaCl, pH 6.0 at 37° C., 0.1 mM substrate, 2.8 μM ARH-III
Protocol: as §1, §2, §3, §4

Chain of human angiogenin, wild type (P03950 25-147): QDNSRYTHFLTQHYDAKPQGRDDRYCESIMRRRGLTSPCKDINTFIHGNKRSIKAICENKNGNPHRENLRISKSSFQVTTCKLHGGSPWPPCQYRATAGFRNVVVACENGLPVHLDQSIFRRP

Molecule | kcat/Km [1] [M⁻¹ s⁻¹] | kcat/Km [2] [M⁻¹ s⁻¹] | kcat/Km [3] [M⁻¹ s⁻¹] | kcat/Km [4] [M⁻¹ s⁻¹] | kcat/Km [5] [M⁻¹ s⁻¹] | kcat/Km [6] [M⁻¹ s⁻¹]
Nc1ccn([C@@H]2O[C@H](CO)[C@@H](OP(=O)(O)OC[C@H]3O[C@@H](n4cnc5c(N)ncnc54)[C@H](O)[C@@H]3O)[C@H]2O)c(=O)n1 [CpA, cytidylyl-(3'-5') adenosine] | 12 | 6e+06 |  |  |  | 
Nc1ccn([C@@H]2O[C@H](CO)[C@@H](OP(=O)(O)OC[C@H]3O[C@@H](n4cnc5c(=O)[nH]c(N)nc54)[C@H](O)[C@@H]3O)[C@H]2O)c(=O)n1 [CpG, cytidylyl-(3'-5') guanosine] | 4.0 | 510000 |  |  |  | 
Nc1ncnc2c1ncn2[C@@H]1O[C@H](COP(=O)(O)O[C@H]2[C@@H](O)[C@H](n3ccc(=O)[nH]c3=O)O[C@@H]2CO)[C@@H](O)[C@H]1O [UpA, uridylyl-(3'-5') adenosine] | 1.1 | 4e+06 |  |  |  | 
Nc1nc2c(ncn2[C@@H]2O[C@H](COP(=O)(O)O[C@H]3[C@@H](O)[C@H](n4ccc(=O)[nH]c4=O)O[C@@H]3CO)[C@@H](O)[C@H]2O)c(=O)[nH]1 [UpG, uridylyl-(3'-5') guanosine] | 0.4 | 180000 |  |  |  | 
ARH-III, angiogenin/RNase hybrid: human angiogenin with residues 8-22 replaced by residues 7-21 of bovine pancreatic RNase A (Homo sapiens) (protein, the coding region for Met-(-1) through Asn-3; fragment C consisted of the coding region from Arg-24 through Pro-123; made in house; host or cells: E. coli W3110 (plasmid pARH-III)) QDNSRYTKFERQHMDSSTSAASDRYCESIMRRRGLTSPCKDINTFIHGNKRSIKAICENKNGNPHRENLRISKSSFQVTTCKLHGGSPWPPCQYRATAGFRNVVVACENGLPVHLDQSIFRRP |  |  | 0.8 | 3.4 | 0.4 | 13
